Results reported in patent US10004701B2, “Methods and compositions for treating infection” (UNIVERSITY OF ROCHESTER, priority 2012, dated 2018).
Where a name gives a salt, the structure may show the parent alone. Read-outs that look alike come from different tables or passages of the source.

Tests used:
Test in all cases: AK assay 384-well format, Prestwick library screening
[1] = system: A. baumannii strain 98-37-09; type: cell-based, Acinetobacter baumannii; settings: 50 μM final drug concentration; for fold induction at 50 µM: Acinetobacter baumannii, 983709, 3 h
K. pneumoniae = type: cell-based, Klebsiella pneumoniae; settings: 50 μM final drug concentration; for fold induction at 50 µM: Klebsiella pneumoniae, 3 h
E. cloacae = type: cell-based, Enterobacter cloacae; settings: 50 μM final drug concentration; for fold induction at 50 µM: Enterobacter cloacae, 3 h
E. faecium = type: cell-based, Enterococcus faecium; settings: 50 μM final drug concentration; for fold induction at 50 µM: Enterococcus faecium, 3 h
[2] = system: S. aureus strain USA300-0114; type: cell-based, Staphylococcus aureus; settings: 50 μM final drug concentration; for fold induction at 50 µM: Staphylococcus aureus, USA300, 3 h
E. coli = type: cell-based, Escherichia coli; settings: 50 μM final drug concentration; for fold induction at 50 µM: Escherichia coli, 3 h
P. aeruginosa = type: cell-based, Pseudomonas aeruginosa; settings: 50 μM final drug concentration; for fold induction at 50 µM: Pseudomonas aeruginosa, 3 h
[3] = planktonic A. baumannii, 384-well, cutoff for positive-scoring molecules 3-fold increase, read-out: AK-based Prestwick Library Screening Results: A. baumannii (increase in extracellular AK activity)
[4] = planktonic K. pneumoniae, 384-well, cutoff for positive-scoring molecules 3-fold increase, read-out: AK-based Prestwick Library Screening Results: K. pneumoniae (increase in extracellular AK activity)
[5] = planktonic E. cloacae, 384-well, cutoff for positive-scoring molecules 3-fold increase, read-out: AK-based Prestwick Library Screening Results: E. cloacae (increase in extracellular AK activity)
[6] = planktonic E. faecium, 384-well, cutoff for positive-scoring molecules 3-fold increase, read-out: AK-based Prestwick Library Screening Results: E. faecium (increase in extracellular AK activity)
[7] = planktonic S. aureus, 384-well, cutoff for positive-scoring molecules 3-fold increase, read-out: AK-based Prestwick Library Screening Results: S. aureus (increase in extracellular AK activity)
[8] = planktonic E. coli, 384-well, cutoff for positive-scoring molecules 3-fold increase, read-out: AK-based Prestwick Library Screening Results: E. coli (increase in extracellular AK activity)
[9] = planktonic P. aeruginosa, 384-well, cutoff for positive-scoring molecules 3-fold increase, read-out: AK-based Prestwick Library Screening Results: P. aeruginosa (increase in extracellular AK activity)
[10] = planktonic A. baumannii, positive cutoff 3-fold increase, read-out: AK-based Prestwick library screening result, A. baumannii (fold increase in extracellular AK activity)
[11] = planktonic K. pneumoniae, positive cutoff 3-fold increase, read-out: AK-based Prestwick library screening result, K. pneumoniae (fold increase in extracellular AK activity)
[12] = planktonic E. cloacae, positive cutoff 3-fold increase, read-out: AK-based Prestwick library screening result, E. cloacae (fold increase in extracellular AK activity)
[13] = planktonic E. faecium, positive cutoff 3-fold increase, read-out: AK-based Prestwick library screening result, E. faecium (fold increase in extracellular AK activity)
[14] = planktonic S. aureus, positive cutoff 3-fold increase, read-out: AK-based Prestwick library screening result, S. aureus (fold increase in extracellular AK activity)
[15] = planktonic E. coli, positive cutoff 3-fold increase, read-out: AK-based Prestwick library screening result, E. coli (fold increase in extracellular AK activity)
[16] = planktonic P. aeruginosa, positive cutoff 3-fold increase, read-out: AK-based Prestwick library screening result, P. aeruginosa (fold increase in extracellular AK activity)

Question: How did the fold induction at 50 µM [1, 3] turn out when [H]/N=C(/N)N[C@H]1[C@H](O)[C@@H](O)[C@H](O[C@@H]2O[C@@H](C)[C@](O)(C=O)[C@H]2O[C@@H]2O[C@@H](CO)[C@H](O)[C@@H](O)[C@@H]2NC)[C@@H](N/C(N)=N\[H])[C@@H]1O [Streptomycin sulfate] was run?
Answer: 0.4

Question: And the fold induction at 50 µM (K. pneumoniae; [4])?
Answer: 0.3

Question: What about the fold induction at 50 µM (E. cloacae; [5]) of the same compound?
Answer: 0.3

Question: And the fold induction at 50 µM (E. faecium; [6])?
Answer: 0.9

Question: What about the fold induction at 50 µM [2, 7] of the same compound?
Answer: 0.4

Question: And the fold induction at 50 µM (E. coli; [8])?
Answer: 0.5

Question: And the fold induction at 50 µM (P. aeruginosa; [9])?
Answer: 0.4

Question: What does the source list for CCN1CCN(C(=O)N[C@@H](C(=O)N[C@@H]2C(=O)N3C(C(=O)O)=C(CSc4nnnn4C)CS[C@H]23)c2ccc(O)cc2)C(=O)C1=O [Cefoperazone dihydrate]?
Answer: fold induction at 50 µM [1, 3]: 0.7; fold induction at 50 µM (K. pneumoniae; [4]): 2.1; fold induction at 50 µM (E. cloacae; [5]): 12; fold induction at 50 µM (E. faecium; [6]): 0.9; fold induction at 50 µM [2, 7]: 0.7; fold induction at 50 µM (E. coli; [8]): 16.5; fold induction at 50 µM (P. aeruginosa; [9]): 5.2

Question: For O=C(O)[C@]1(O)C[C@@H](O)[C@@H](O)[C@H](O)C1 [Quinic acid], which fold induction at 50 µM [1, 10] is on record?
Answer: 1.4

Question: What about the fold induction at 50 µM (K. pneumoniae; [11]) of the same compound?
Answer: 1.3

Question: And the fold induction at 50 µM (E. cloacae; [12])?
Answer: 1.2

Question: What about the fold induction at 50 µM (E. faecium; [13]) of the same compound?
Answer: 1

Question: What about the fold induction at 50 µM [2, 14] of the same compound?
Answer: 1.2

Question: And the fold induction at 50 µM (E. coli; [15])?
Answer: 1.2

Question: And the fold induction at 50 µM (P. aeruginosa; [16])?
Answer: 1.1

Question: COc1cc(C(=O)OCCCN2CCCN(CCCOC(=O)c3cc(OC)c(OC)c(OC)c3)CC2)cc(OC)c1OC [Dilazep dihydrochloride] was tested. Which fold induction at 50 µM [1, 3] did it give?
Answer: 1.4

Question: What about the fold induction at 50 µM (K. pneumoniae; [4]) of the same compound?
Answer: 1.4

Question: What about the fold induction at 50 µM (E. cloacae; [5]) of the same compound?
Answer: 1.1

Question: And the fold induction at 50 µM (E. faecium; [6])?
Answer: 1.1

Question: What about the fold induction at 50 µM [2, 7] of the same compound?
Answer: 1.2

Question: What about the fold induction at 50 µM (E. coli; [8]) of the same compound?
Answer: 1.5

Question: And the fold induction at 50 µM (P. aeruginosa; [9])?
Answer: 1.3

Question: Which fold induction at 50 µM ([1]; 384-well format, cutoff for positive-scoring molecules 3-fold increase, read-out: AK-based Prestwick Library Screening Results, A. baumannii (increase in extracellular AK activity)) does the source give for CN(C)CCC(c1ccc(Cl)cc1)c1ccccn1 (stereo not drawn) [Chlorpheniramine maleate] here?
Answer: 0.9

Question: And the fold induction at 50 µM (K. pneumoniae; 384-well format, cutoff for positive-scoring molecules 3-fold increase, read-out: AK-based Prestwick Library Screening Results, K. pneumoniae (increase in extracellular AK activity))?
Answer: 0.7

Question: And the fold induction at 50 µM (E. cloacae; 384-well format, cutoff for positive-scoring molecules 3-fold increase, read-out: AK-based Prestwick Library Screening Results, E. cloacae (increase in extracellular AK activity))?
Answer: 1.1

Question: And the fold induction at 50 µM (E. faecium; 384-well format, cutoff for positive-scoring molecules 3-fold increase, read-out: AK-based Prestwick Library Screening Results, E. faecium (increase in extracellular AK activity))?
Answer: 0.9

Question: And the fold induction at 50 µM ([2]; 384-well format, cutoff for positive-scoring molecules 3-fold increase, read-out: AK-based Prestwick Library Screening Results, S. aureus (increase in extracellular AK activity))?
Answer: 0.8

Question: And the fold induction at 50 µM (E. coli; 384-well format, cutoff for positive-scoring molecules 3-fold increase, read-out: AK-based Prestwick Library Screening Results, E. coli (increase in extracellular AK activity))?
Answer: 1

Question: What about the fold induction at 50 µM (P. aeruginosa; 384-well format, cutoff for positive-scoring molecules 3-fold increase, read-out: AK-based Prestwick Library Screening Results, P. aeruginosa (increase in extracellular AK activity)) of the same compound?
Answer: 0.8

Question: How did the fold induction at 50 µM ([1]; planktonic, cutoff for positive-scoring molecules 3-fold increase, read-out: AK-based Prestwick Library Screening Results, A. baumannii (fold increase in extracellular AK activity)) turn out when CC(C)(C)NCC(O)COc1cccc2c1CC(O)C(O)C2 (stereo not drawn) [Nadolol] was run?
Answer: 0.7

Question: What about the fold induction at 50 µM (K. pneumoniae; planktonic, cutoff for positive-scoring molecules 3-fold increase, read-out: AK-based Prestwick Library Screening Results, K. pneumoniae (fold increase in extracellular AK activity)) of the same compound?
Answer: 0.6

Question: And the fold induction at 50 µM (E. cloacae; planktonic, cutoff for positive-scoring molecules 3-fold increase, read-out: AK-based Prestwick Library Screening Results, E. cloacae (fold increase in extracellular AK activity))?
Answer: 0.8

Question: What about the fold induction at 50 µM (E. faecium; planktonic, cutoff for positive-scoring molecules 3-fold increase, read-out: AK-based Prestwick Library Screening Results, E. faecium (fold increase in extracellular AK activity)) of the same compound?
Answer: 0.9

Question: What about the fold induction at 50 µM ([2]; planktonic, cutoff for positive-scoring molecules 3-fold increase, read-out: AK-based Prestwick Library Screening Results, S. aureus (fold increase in extracellular AK activity)) of the same compound?
Answer: 0.7

Question: What about the fold induction at 50 µM (E. coli; planktonic, cutoff for positive-scoring molecules 3-fold increase, read-out: AK-based Prestwick Library Screening Results, E. coli (fold increase in extracellular AK activity)) of the same compound?
Answer: 0.8

Question: What about the fold induction at 50 µM (P. aeruginosa; planktonic, cutoff for positive-scoring molecules 3-fold increase, read-out: AK-based Prestwick Library Screening Results, P. aeruginosa (fold increase in extracellular AK activity)) of the same compound?
Answer: 0.6

Question: Which fold induction at 50 µM [1, 10] does the source give for C[C@]1(OC(=O)/C=C/c2ccccc2)C[C@@H](O)[C@]2(O)C=CO[C@@H](O[C@@H]3O[C@H](CO)[C@@H](O)[C@H](O)[C@H]3O)[C@@H]21 [Harpagoside] here?
Answer: 0.9

Question: What about the fold induction at 50 µM (K. pneumoniae; [11]) of the same compound?
Answer: 0.7

Question: What about the fold induction at 50 µM (E. cloacae; [12]) of the same compound?
Answer: 0.9

Question: What about the fold induction at 50 µM (E. faecium; [13]) of the same compound?
Answer: 0.9

Question: And the fold induction at 50 µM [2, 14]?
Answer: 0.8

Question: What about the fold induction at 50 µM (E. coli; [15]) of the same compound?
Answer: 0.8

Question: What about the fold induction at 50 µM (P. aeruginosa; [16]) of the same compound?
Answer: 0.8

Question: For O=C1C=C2C=C[C@@H]3C[C@@]2(O1)[C@H]1CCCCN31 [Securinine], which fold induction at 50 µM ([1]; […], read-out: AK-based Prestwick Library Screening Results, A. baumannii (fold increase in extracellular AK activity)) is on record?
Answer: 1.1

Question: And the fold induction at 50 µM (K. pneumoniae; […], read-out: AK-based Prestwick Library Screening Results, K. pneumoniae (fold increase in extracellular AK activity))?
Answer: 0.8

Question: And the fold induction at 50 µM (E. cloacae; […], read-out: AK-based Prestwick Library Screening Results, E. cloacae (fold increase in extracellular AK activity))?
Answer: 1.6

Question: What about the fold induction at 50 µM (E. faecium; […], read-out: AK-based Prestwick Library Screening Results, E. faecium (fold increase in extracellular AK activity)) of the same compound?
Answer: 1

Question: And the fold induction at 50 µM ([2]; […], read-out: AK-based Prestwick Library Screening Results, S. aureus (fold increase in extracellular AK activity))?
Answer: 1.1

Question: And the fold induction at 50 µM (E. coli; […], read-out: AK-based Prestwick Library Screening Results, E. coli (fold increase in extracellular AK activity))?
Answer: 1.3

Question: And the fold induction at 50 µM (P. aeruginosa; […], read-out: AK-based Prestwick Library Screening Results, P. aeruginosa (fold increase in extracellular AK activity))?
Answer: 1.2

Question: O=C(O)Cc1cc(I)c(Oc2ccc(O)c(I)c2)c(I)c1 was tested. Which “AK-based Prestwick Library Screening Results: A. baumannii (increase in extracellular AK activity)” value ([1]; planktonic A. baumannii, 384-well, cutoff for positive-scoring molecules 3-fold increase) did it give?
Answer: 1.1

Question: What about the “AK-based Prestwick Library Screening Results: K. pneumoniae (increase in extracellular AK activity)” value (K. pneumoniae; planktonic K. pneumoniae, 384-well, cutoff for positive-scoring molecules 3-fold increase) of the same compound?
Answer: 1.0

Question: What about the “AK-based Prestwick Library Screening Results: E. cloacae (increase in extracellular AK activity)” value (E. cloacae; planktonic E. cloacae, 384-well, cutoff for positive-scoring molecules 3-fold increase) of the same compound?
Answer: 1.5

Question: And the “AK-based Prestwick Library Screening Results: E. faecium (increase in extracellular AK activity)” value (E. faecium; planktonic E. faecium, 384-well, cutoff for positive-scoring molecules 3-fold increase)?
Answer: 1.3

Question: What about the “AK-based Prestwick Library Screening Results: S. aureus (increase in extracellular AK activity)” value ([2]; planktonic S. aureus, 384-well, cutoff for positive-scoring molecules 3-fold increase) of the same compound?
Answer: 0.4

Question: And the “AK-based Prestwick Library Screening Results: E. coli (increase in extracellular AK activity)” value (E. coli; planktonic E. coli, 384-well, cutoff for positive-scoring molecules 3-fold increase)?
Answer: 1.1

Question: What about the “AK-based Prestwick Library Screening Results: P. aeruginosa (increase in extracellular AK activity)” value (P. aeruginosa; planktonic P. aeruginosa, 384-well, cutoff for positive-scoring molecules 3-fold increase) of the same compound?
Answer: 1.2
